Assay results: US20230346931A1, “ALTERNATIVE SURFACTANTS AS STABILIZERS FOR THERAPEUTIC PROTEIN FORMULATIONS” (Hoffmann-La Roche Inc., priority 2020, published 2023)

Experiments:
Assay type in all cases: physicochemical
model mAb = assay: Thermal conformational protein stability in presence of surfactants (nanoDSF); details: for effect on mAbs' conformational stability: elevated surfactant concentrations; for change of Tm1: surfactant 10 mg/mL; for change in thermal conformational stability properties: already at lower concentrations of 0.1 & mg/mL
Excerpt: Conformational protein stability was investigated with the Prometheus NT.Plex (NanoTemper Technologies GmbH, München, Germany). The device allows the label-free fluorimetric analysis of the change in intrinsic protein fluorescence from aromatic tryptophan and tyrosine residues by using small quantities of solution. Thermal induced protein unfolding was monitored by detecting the emission shift at 330 nm and 350 nm at a laser power of 5%. The nanoDSF grade standard capillary chips (NanoTemper Technologies, München, Germany) were filled with 10 μL of freshly prepared (t0) formulation containing 25 mg/mL mAb compounded with either 0.01, 0.1, 1 or 10 mg/mL of the specific surfactant. Sodium dodecyl sulfate (SDS) was taken as positive control since the charge as been reported to lead to destabilization of proteins presumably by chare-charge interactions. Samples were heated from 25 to 95° C. with a constant heating ramp of 0.5° C. per minute. The PR.StabilityAnalysis software (NanoTemper Technologies, München, Germany) automatically calculated the onset (Ton) and first transition point (Tm1) temperature of the melting curve. Data reported are the mean value of three individual measurements.
Stability indicating parameters being the onset temperature (Ton) of unfolding and the first melting transition (Tm1) were measured for the model mAb in presence of surfactants at concentrations ranging from 0.01 mg/mL to 10 mg/mL (see FIG. 4).

mAb 1 [1] = assay: Protein stability in presence of surfactants after mechanical stresses (shaking, freeze-thaw) and thermal stress, mAb 1; details: for particle formation upon shaking: 200 rpm, 7 days, 5° C. and 25° C.; for SVP ≥10 μm per container after shaking: criteria of maximum 6,000 particles≥10 μm per container
Protocol: (§1) Surfactant performance screens were carried out with 0.1 and 1 mg/mL of the surfactant in the formulation of the model mAb described within the Materials section. After compounding the liquid samples were sterile filtered through 0.22 μm Millex Sterivex™ GV (Millipore, Bedford, USA) filter units, filled into 6 mL type 1 glass vials and closed with Ø 20 mm teflon® coated serum stoppers (DAIKYO Seiko Ltd., Tokyo, Japan). The stoppered vials were crimped using an aluminum cap (Infochroma AG, Goldau, Switzerland). The corresponding placebo formulations were equally prepared, formulated and used as respective controls.
To evaluate the effects of the surfactants on the mAb's stability the formulations were exposed to various interfacial stress conditions like agitation and various freeze-thaw cycles. Shaking stress was carried by placing the vials horizontally for seven days at 5° C. and 25° C. protected from light within a shaker (HS 260 Control Model; IKA Werke GmbH & Co. KG; Staufen, Germany) at constant 200 rounds per minute (rpm). Freeze-thaw (F/T) stress was performed by exposing the vials to five consecutive cycles of freezing at −20° C. and thawing at 5° C.
Thermal stability data was generated by storing the liquid protein formulations for up to 24 months (mo) at 5° C., for 6 months at 25° C./60% relative humidity (rH) and 12 weeks at 40° C./75% rH. Samples were analyzed at initial time point (t0) and after 1 mo, 3 mo, 6 mo, 12 mo, 18 mo and 24 months of storage using the subsequently described analytical methods
Enhanced visual inspection was performed as previously described using a Seidenader V 90-T machine (Seidenader Maschinenbau GmbH, Markt Schwaben, Germany)[58]. The number of particles were categorized into four classes: class (I) is equivalent to 0 particles, class (II) is equivalent to 1-5 particles, class (III) is equivalent to 6-10 particles and class (IV) is equivalent to >10 particles.
Turbidity was determined as previously described in literature and according to Ph. Eur. 2.2.1 using a 2100AN turbidimeter (Hach Lange GmbH, Dusseldorf, Germany) calibrated with a StablCal® calibration kit (Hach Lange GmbH). Results were given as Nephelometic Turbidity Units (NTU).
The color of the solutions was assessed by means of a LICO 690 Colorimeter (Hach Lange GmbH). Classification was performed according to the color scale described in Ph. Eur. 2.2.2.. Data presented herein show the degree of color change according to color scale values of Ph.Eur. 2.2.2: class (I) is equivalent to color scale values of 9, 8, 7, or colorless; class (II) is equivalent to color scale values of 6 or 5; class (III) is equivalent to color scale values of 4 or 3; and class (IV) is equivalent to color scale values of 2 or 1.
Sub-visible particle (SVP) count was measured by means of light obscuration using a HIAC 9703+ liquid particle counting system (Skan AG, Allschwil, Switzerland) and PharmSpec 3 (Hach Lange GmbH) software. The applied measurement technique was adapted from the method described in Ph.Eur. 2.9.19 [61] and USP <787>[62]. After rinsing the system with sample solution, four runs with a sample volume of 0.2 mL were performed. The final cumulative particle count was obtained by calculating the mean ±SD (standard deviation) from the last three measurements. SVP bigger than or equal to 2, 5, 10 and 25 μm were measured and presented as cumulative counts per mL of solution.
Detection of soluble mAb aggregates, in the following referred to as high molecular weight species (HMWS), the monomer and the low molecular weight species (LMWs) were analyzed by SE-HPLC. The utilized system comprised an Alliance 2695 HPLC instrument equipped with a 2487 UV detector (both from Waters Corporation, Milford, MA). The autosampler temperature was set to 5° C. and the system was loaded with total 100 μg of the mAb. […]

mAb 1 [2] = assay: Long-term protein stability (storage at 5° C. and 25° C.), mAb 1; details: higher concentrations
Protocol: as §1
Thermal stability data was generated by storing the liquid protein formulations for up to 24 months (mo) at 5° C., for 6 months at 25° C./60% relative humidity (rH) and 12 weeks at 40° C./75% rH. Samples were analyzed at initial time point (t0) and after 1 mo, 3 mo, 6 mo, 12 mo, 18 mo and 24 months of storage using the subsequently described analytical methods […]
Turbidity was determined as previously described in literature and according to Ph. […]
The color of the solutions was assessed by means of a LICO 690 Colorimeter (Hach Lange GmbH). […]
Sub-visible particle (SVP) count was measured by means of light obscuration using a HIAC 9703+ liquid particle counting system (Skan AG, Allschwil, Switzerland) and PharmSpec 3 (Hach Lange GmbH) software. […]

[3] = Surface tension measurement (dynamic surface tension, DST); details: mAb formulation at t0
Protocol: Surface tension measurements were performed by means of liquid handling stations according to a method described by Amrhein et al.[63]. Briefly, the measurement depends on the correlation between drop mass and the surface tension of the sample. For this study a fully automated liquid handling station Freedom 384 EVO 200 (Tecan, Crailsheim, Germany) was equipped with an analytical balance (Mettler Toledo, Columbus, USA). The system contains stainless fixed tips which aspirate the sample with 100 μL·s^−1 from a sealed 1 mL round bottom LoBind® Deepwell Plate (Eppendorf, Hamburg, Germany). The sample was dispensed with 3 μL·s^−1 to a second round bottom Deepwell Plate 96/500 μL (Eppendorf, Hamburg, Germany) mounted on an analytical balance. The weight was recorded continuously using fully automated routines written in Matlab R2017b (MathWorks, Natick, MA, USA). The surface tension of water (72.6 mN/m) was used as a reference for calculations. The mean of three individual measurements of the samples (at t0) is reported as surface tension.

With `C[C@H](CCC(=O)N(CCCNC(=O)[C@H](O)[C@@H](O)[C@H](O)[C@H](O)CO)CCCNC(=O)[C@H](O)[C@@H](O)[C@H](O)[C@H](O)CO)[C@H]1CC[C@H]2[C@@H]3CC[C@@H]4C[C@H](O)CC[C@]4(C)[C@H]3C[C@H](O)[C@]12C` [DBC, Deoxy-BigCHAP] as the compound, how does the “effect on mAbs' conformational stability” value (model mAb) read?
Its value is “destabilizing effect”.

And the “change of Tm1” value (model mAb)?
The value was “slight decrease”.

And the “change of Ton” value (model mAb; surfactant 1 and 10 mg/mL)?
The value was “slight decrease in Ton”.

What about the visible particles initially (mAb 1 [1]; 1 mg/mL surfactant) of the same compound?
Its visible particles initially is “many particles initially”.

What about the “particle formation upon shaking” value (mAb 1 [1]) of the same compound?
The value was “particle formation particularly after agitation”.

What about the “SVP ≥10 μm per container after shaking” value (mAb 1 [1]) of the same compound?
Its value is “exceeded USP <787> criteria”.

What about the solubility in formulation (mAb 1 [2]) of the same compound?
Its solubility in formulation is “solubility issues”.

Which “effect on mAbs' conformational stability” value (model mAb) does the source give for `CCCCCCCCCC(=O)N(CCO)C[C@H](O)[C@@H](O)[C@H](O)[C@H](O)CO` [HEGA-10, decanoyl-N-hydroxyethylglucamide] here?
The value was “destabilizing effect”.

And the “change of Tm1” value (model mAb)?
Its value is “comparable destabilizing effect”.

And the “change of Ton” value (model mAb; surfactant 1 and 10 mg/mL)?
The value was “comparable destabilizing effect”.

Which “effect on mAbs' conformational stability” value (model mAb) does the source give for `CCCCCCCCC(=O)N(C)C[C@H](O)[C@@H](O)[C@H](O)[C@H](O)CO` [MEGA-9, nonanoyl-N-methylglucamide] here?
Its value is “destabilizing effect”.

What about the “change of Tm1” value (model mAb) of the same compound?
The value was “comparable destabilizing effect”.

And the “change of Ton” value (model mAb; surfactant 1 and 10 mg/mL)?
Its value is “comparable destabilizing effect”.

Which “change in thermal conformational stability properties” value (model mAb) does the source give for `C[C@H](CCC(=O)NCC(=O)[O-])[C@H]1CC[C@H]2[C@@H]3[C@H](O)C[C@@H]4C[C@H](O)CC[C@]4(C)[C@H]3C[C@H](O)[C@]12C.O.[Na+]` [NaGC, sodium glycocholate hydrate] here?
Its value is “strong decrease in thermal conformational stability properties”.

Which “effect on Ton and Tm1 compared to reference formulation without surfactant” value (model mAb; surfactant 0.01 to 10 mg/mL) does the source give for `CCCCCCCCCCCCOS(=O)(=O)[O-].[Na+]` [SDS, Sodium dodecyl sulfate, reference compound] here?
The value was “concentration dependent destabilizing effect”.

With Chobimalt as the compound, how does the “effect on mAbs' conformational stability” value (model mAb) read?
Its value is “no impact”.

What about the “change of Ton” value (model mAb; surfactant 1 mg/mL or higher) of the same compound?
Its value is “slight increase of Ton”.

What about the “color after shaking stress” value (mAb 1 [1]) of the same compound?
The value was “strong change in color”.

And the “stabilizing effect upon F/T studies” value (mAb 1 [1]; 5 freeze-thaw cycles)?
Its value is “missing stabilizing effect at the interface”.

And the “particle formation upon shaking” value (mAb 1 [1])?
The value was “strongest particle formation upon shaking”.

And the “SVP ≥10 μm per container after shaking” value (mAb 1 [1])?
Its value is “exceeded USP <787> criteria”.

And the dynamic surface tension [3]?
The dynamic surface tension was “around 73 mN/m”.

Which “change in thermal conformational stability properties” value (model mAb) does the source give for sodium deoxy cholate [NaDC] here?
The value was “strong decrease in thermal conformational stability properties”.
